Laboratory results taken from patent US6291496A, “Treating cancers associated with overexpression of class I family of receptor tyrosine kinases” (priority 1999, dated 2001).

Test system: non-small cell lung carcinoma where EGFR is overexpressed
Test: Example VI: non-small cell lung carcinoma metastasized to liver
Format: in vivo, human
Details: patient, oral 5 mg/kg twice daily
Description: After one month, PPARγ ligand administration is continued in combination with infusion of cisplatin every four weeks at 60 mg/m^2 for 12 more weeks.

`CC1(COc2ccc(CC3SC(=O)NC3=O)cc2)CCCCC1` (stereo not shown) [ciglitazone] was tested, and the tumor burden was “reduced tumor burden”.
